Test results published in patent publication US10434199B2, “Picolinate cross-bridged cyclams, chelates with metallic cations and use thereof” (UNIVERSITÉ DE BRETAGNE OCCIDENTALE, priority 2013, dated 2019).

Tests used:
[1] = Potentiometric titrations: protonation constants of the ligands; type: physicochemical; conditions: 25.0° C., 0.10M KNO3
Method: Equipment and work conditions. The potentiometric setup has been described in Roger, M. et al. Inorg. Chem. 2013, 52, 5246-5259. The titrant was a KOH solution prepared at ca. 0.1 M from a commercial ampoule of analytical grade, and its accurate concentration was obtained by application of the Gran's method upon titration of a standard HNO3 solution (Rossotti, F. J. and Rossotti, H. J. J. Chem. Educ. 1965, 42, 375-378). Ligand solutions were prepared at about 2.0×10^−3 M, and the Cu^2+ and Zn^2+ solutions at ca. 0.05 M from analytical grade nitrate salts and standardized by complexometric titrations with H4edta (ethylenediaminetetraacetic acid). Sample solutions for titration contained approximately 0.04 mmol of ligand in a volume of 30 mL where the ionic strength was kept at 0.10 M using KNO3 as background electrolyte. Metal cations were added at 0.9 equiv. of the ligand amount in complexation titrations. Batch titrations were prepared in a similar way but with each titration point corresponding to 1/10 of the amount of a conventional titration sample. Batch titration points were incubated in tightly closed vials at 25° C. until potential measurements attained complete stability, which happened within a week.
Measurements. All measurements were carried out at 25.0±0.1° C. under inert atmosphere. The electromotive force of the sample solutions was measured after calibration of the electrodes by titration of a standard HNO3 solution at 2.0×10^−3 M in the work conditions. The [H^+] of the solutions was determined by measurement of the electromotive force of the cell, E=E^o′+Q log [H^+]+Ej. The term pH is defined as −log [H^+]. E^o′ and Q were determined from the acid region of the calibration curves. Deviations from the Nernst law at very low pH (pH<2.5) were corrected with the VLpH software (Calibration software from the maker of Hyperquad available for free at http://www.hyperquad.co.uk/), which performs a [H^+] correction based on a very low pH calibration procedure. The liquid-junction potential, Ej, was otherwise found to be negligible for pH >2.5 under the experimental conditions used. […] Each titration consisted of 80-100 equilibrium points in the range of pH 2.5-11.5 (or 1.5-11.5 for Cu^2+ complexations), and at least two replicate titrations were performed for each particular system.
Calculations. […] The errors quoted are the standard deviations calculated by the fitting program from all the experimental data for each system.
The protonation constants of Hcb-te1pa were studied in aqueous solution at 25.0° C. The compound has five basic centers consisting of the four amines and the carboxylate function, from which only two could be accurately determined by potentiometric titrations (Table 1). […]

[2] = Copper(II) complex formation kinetics (UV-vis, buffered aqueous solutions); type: physicochemical; conditions: for time to completion (>99%) of copper(II) complex formation: 25° C.
Method: Complex Formation. The formation of the copper(II) complex of Hcb-te1pa was studied in buffered aqueous solutions at 25° C. The increasing intensity of the complex d-d transition band in the visible range (600 nm) was followed at pH=5.0 (0.2 M potassium acetate buffer) and pH=7.4 (0.2 M HEPES buffer), with [Cu^2+]=[Hcb-te1pa]=0.8 mM. Additionally, complex formation was also studied at pH=3.0 (0.2 M (K,H)Cl) under pseudo-first order conditions, by following the increasing charge transfer band in the UV range (at 310 nm) at [Cu^2+]=10×[Hcb-te1pa]=2 mM.
The copper(II) complex formation with Hcb-te1pa was spectroscopically monitored in different buffered solutions from acidic to neutral pH. […] The reaction becomes progressively slower because of the increase of the acidity of the reaction media, enabling a kinetic study under pseudo-first order conditions using conventional UV-vis spectroscopic methods. In this work such kinetic study was performed at pH=3, which is at the lower limit of the pH range in which the copper(II) complexation is approximately complete under equilibrium in equimolar metal-to-ligand conditions.

log βi^H, L + 2 H^+ ⇌ H2L [1]: 25.13(5) log units
log βi^H, L + 3 H^+ ⇌ H3L [1]: 27.56(5) log units
log βi^H, L + 4 H^+ ⇌ H4L [1]: <29.56 log units
log βi^H, L + H^+ ⇌ HL [1]: >15 log units
Structure (SMILES): O=C(O)c1cccc(CN2CCCN3CCNCCCN(CC3)CC2)n1 [Hcb-te1pa, 6-(1,4,8,11-tetraazabicyclo[6.6.2]hexadecan-4-ylmethyl)picolinic acid]
a) metallation kinetics: time required for complete (>99%) Cu complexation ([2]; overview table): 3 min
time to quantitative (>99%) formation of copper(II) complex ([2]; pH=3, pseudo-first order, excess of 10 equivalents of metal cation): ≤ 10 min
time to completion (>99%) of copper(II) complex formation ([2]; pH=5, equimolar metal-to-ligand ratio): ≤ 3 min
time to completion (>99%) of copper(II) complex formation ([2]; physiological pH (7.4), equimolar metal-to-ligand ratio): within a few seconds
copper chelated immediately ([2]; remaining copper chelated within a few seconds): more than 90%
